Experimental data published in patent US4401666A (priority 1982, dated 1983).

Assays:
[1] = tested on: microorganisms which cause bovine mastitis; conditions: broth
Experimental: (§1) Bacterial isolates for these studies were obtained from the New York State Mastitis Control Program, a division of veterinary clinical services of the New York State College of Veterinary Medicine, Cornell University. Samples were from cows with clinical mastitis or from milk cows that were cultured for a routine herd survey. Mastitis pathogens were identified by the use of standard bacteriologic technique^(1).
(§2) Concentrations inhibiting growth by 50% were determined using broth dilution test procedures^(2). Briefly 0.1 ml of cultures containing approximately 9×10^6 organisms/ml were inoculated into 10 mls of Tryptose-soy broth^(3) containing either 0, 1, 10, 100, or 1000 ppm of zinc pyridine-2-thione-N-oxide. These tubes were incubated at 37° C. for 18 hours and optical densities were read at 550 nanometers. Blanks for each test level consisted of a Tryptose-soy broth tube with the same concentration of test material. Concentrations of test material inhibiting growth by 50% were computed by probit analysis^(4).

Klebsiella pneumoniae = tested on: Klebsiella pneumoniae
Experimental: as §1, §2

Escherichia coli = tested on: Escherichia coli
Experimental: as §1, §2

Pseudomonas aeruginosa = conditions: 37° C., 18 h, 2 isolates
Experimental: as §1, §2

Staphylococcus aureus = conditions: 37° C., 18 h, 5 isolates
Experimental: as §1, §2

Yeast Group = assay: Broth dilution growth inhibition (MIC), isolates from mastitic cows; type: cell-based; conditions: 37° C., 18 h, 5 isolates
[2] = bovine, in vivo
S. aureus = assay: MIC in sterile, homogenized, skim milk; type: cell-based, Staphylococcus aureus; conditions: 37° C., 4 h
Experimental: (§3) Cultures of E. coli and S. aureus were isolated from mammary glands of cows with mastitis. Cultures were streaked on blood agar plates and incubated for 24 hours at 37° C. Colonies from these plates were inoculated into nutrient broth tubes and incubated at 37° C. overnight. One-tenth milliliter aliquots of these cultures were inoculated into 10 milliliter tubes of sterile, homogenized, skim milk containing various concentrations of zinc pyridine-2-thione-N-oxide. The concentrations of this active compound ranged from 0.01 ppm to 100 ppm and were made by serially diluting a 1% by weight aqueous suspension of zinc pyridine-2-thione-N-oxide in 10 milliliter portions of sterile skim milk.
(§4) The milk tubes containing bacteria and zinc pyridine-2-thione-N-oxide were incubated in a shaking water bath at 37° C. for 4 hours; at the end of the incubation period, 0.1 ml of the milk incubate was added to 2 ml of soft agar (0.75% by weight agar and the rest being water) and plated on blood agar plates. These plates were incubated at 37° C. for 18 hours and the microorganisms present on each plate were counted with an NBS Automatic Colony Counter.

E. coli = assay: MIC in sterile, homogenized, skim milk; type: cell-based, Escherichia coli; conditions: 37° C., 4 h
Experimental: as §3, §4

rats = conditions: cited from earlier work
[3] = tested on: udder of normal, lactating cows; conditions: bovine, in vivo
[4] = tested on: udder of healthy, lactating cow; conditions: bovine, in vivo
[5] = Tryptose-soy broth, 37° C., 18 h, 3 isolates
[6] = Tryptose-soy broth, 37° C., 18 h, 5 isolates

[Na+].[O-][n+]1ccccc1[S-] [sodium pyridine-2-thione-N-oxide, 2-pyridinethiol-1-oxide, Na salt]
effectiveness against microorganisms which cause bovine mastitis [1]: effective
50% by Weight Growth Inhibited (Klebsiella pneumoniae; Table 1A, broth, 37° C., 18 h, 3 isolates): 5.2 ± 0.8
50% by Weight Growth Inhibited (Escherichia coli; Table 1A, broth, 37° C., 18 h, 5 isolates): 3.4 ± 0.8
50% by Weight Growth Inhibited (Pseudomonas aeruginosa; Table 1A, broth): 38.0 ± 5.2
50% by Weight Growth Inhibited (Staphylococcus aureus; Table 1A, broth): < 1.0
50% by Weight Growth Inhibited (Yeast Group; Table 1A, broth): < 1.0

[O-]n1ccccc1=S.[O-]n1ccccc1=S.[Zn+2] [zinc pyridine-2-thione-N-oxide, bis[1-hydroxy-2(1H)pyridinethionato]zinc]
disappearance from the milk [2]: relative quick disappearance from the milk
residual amounts in milk expected at lower infused amounts [2]: may be expected to be lower
residual content in milk, summary [2]: very low levels
MIC at 95% Inhibition of Growth (S. aureus): 10 ppm
MIC at 100% Inhibition of Growth (S. aureus): 100 ppm
MIC at 95% Inhibition of Growth (E. coli): 10 ppm
MIC at 100% Inhibition of Growth (E. coli): 100 ppm
effectiveness against microorganisms which cause bovine mastitis [1]: effective
50% by Weight Growth Inhibited (concentration inhibiting growth by 50%) (Klebsiella pneumoniae; [5]): 2.1 ± 0.3 ppm
100% by Weight Growth Inhibited (MIC) (Klebsiella pneumoniae; [5]): 10-20 ppm
effectiveness against K. pneumoniae (Klebsiella pneumoniae; broth): especially effective
50% by Weight Growth Inhibited (concentration inhibiting growth by 50%) (Escherichia coli; [6]): 2.5 ± 0.5 ppm
100% by Weight Growth Inhibited (MIC) (Escherichia coli; [6]): 13-20 ppm
effectiveness against E. coli (Escherichia coli; broth): especially effective
50% by Weight Growth Inhibited (concentration inhibiting growth by 50%) (Pseudomonas aeruginosa; Tryptose-soy broth): 9.6 ± 6.4 ppm
100% by Weight Growth Inhibited (MIC) (Pseudomonas aeruginosa; Tryptose-soy broth): 80-100 ppm
50% by Weight Growth Inhibited (concentration inhibiting growth by 50%) (Staphylococcus aureus; Tryptose-soy broth): < 1.0 ppm
100% by Weight Growth Inhibited (MIC) (Staphylococcus aureus; Tryptose-soy broth): 5-10 ppm
50% by Weight Growth Inhibited (concentration inhibiting growth by 50%) (Yeast Group; Tryptose-soy broth): < 1.0 ppm
100% by Weight Growth Inhibited (MIC) (Yeast Group; Tryptose-soy broth): 3-6 ppm
LD50 (rats): 200 mg/kg
CMT scores, overall [3]: increased CTM scores
CMT values at 504 hours after the first dose [3]: Normal values
adverse effects on cow's udder [3]: some adverse effects on cow's udder
change in CMT scores [3]: increase
flakes and clots in milk [3]: produced flakes and clots in milk
milk output [3]: depressed milk output
milk production [3]: reduced more dramatically than the 1% infusion
overall effects compared with 1% infusion [3]: in general similar to 1% infusion except with increased severity
systemic effects [3]: no systemic effects were noted
warmth of the udder [3]: felt warm
change in CMT scores [4]: very slight rise
effect on CMT scores [4]: no effect
effect on other physical observations [4]: no effect
firmness of the udder to palpation [4]: increased firmness of the udder to palpation
irritation caused to the udder [4]: low irritation
